Results reported in patent US20230257396A1, “MACROCYCLES AND THEIR USE” (BLOSSOMHILL THERAPEUTICS, INC., priority 2020, published 2023).

Target: T1, kinases (Homo sapiens, UniProt P00519, F317L)
T1 construct: purchased Eurofins/DiscoveRx; host or cells: E. coli BL21-derived host (T7 phage display) for most kinases; HEK-293 for the rest
Assay: KINOMEscan kinase binding assay (Eurofins/DiscoveRx), % Ctrl
Details: 1 μM
Procedure, shortened: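 Competition binding: DNA- or phage-tagged kinases (T7 phage in E. coli BL21, or HEK-293-expressed) with immobilized biotinylated ligand beads and test compound, 1 h at room temperature. Bead-bound kinase eluted and quantified by qPCR; % Ctrl = (compound − positive control)/(negative control − positive control) ×100 at a single compound concentration.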

[1] = target ABL1(F317L)-nonphosphorylated
[2] = target ABL1(F317L)-phosphorylated

T1 sequence (P00519 whole entry F317L): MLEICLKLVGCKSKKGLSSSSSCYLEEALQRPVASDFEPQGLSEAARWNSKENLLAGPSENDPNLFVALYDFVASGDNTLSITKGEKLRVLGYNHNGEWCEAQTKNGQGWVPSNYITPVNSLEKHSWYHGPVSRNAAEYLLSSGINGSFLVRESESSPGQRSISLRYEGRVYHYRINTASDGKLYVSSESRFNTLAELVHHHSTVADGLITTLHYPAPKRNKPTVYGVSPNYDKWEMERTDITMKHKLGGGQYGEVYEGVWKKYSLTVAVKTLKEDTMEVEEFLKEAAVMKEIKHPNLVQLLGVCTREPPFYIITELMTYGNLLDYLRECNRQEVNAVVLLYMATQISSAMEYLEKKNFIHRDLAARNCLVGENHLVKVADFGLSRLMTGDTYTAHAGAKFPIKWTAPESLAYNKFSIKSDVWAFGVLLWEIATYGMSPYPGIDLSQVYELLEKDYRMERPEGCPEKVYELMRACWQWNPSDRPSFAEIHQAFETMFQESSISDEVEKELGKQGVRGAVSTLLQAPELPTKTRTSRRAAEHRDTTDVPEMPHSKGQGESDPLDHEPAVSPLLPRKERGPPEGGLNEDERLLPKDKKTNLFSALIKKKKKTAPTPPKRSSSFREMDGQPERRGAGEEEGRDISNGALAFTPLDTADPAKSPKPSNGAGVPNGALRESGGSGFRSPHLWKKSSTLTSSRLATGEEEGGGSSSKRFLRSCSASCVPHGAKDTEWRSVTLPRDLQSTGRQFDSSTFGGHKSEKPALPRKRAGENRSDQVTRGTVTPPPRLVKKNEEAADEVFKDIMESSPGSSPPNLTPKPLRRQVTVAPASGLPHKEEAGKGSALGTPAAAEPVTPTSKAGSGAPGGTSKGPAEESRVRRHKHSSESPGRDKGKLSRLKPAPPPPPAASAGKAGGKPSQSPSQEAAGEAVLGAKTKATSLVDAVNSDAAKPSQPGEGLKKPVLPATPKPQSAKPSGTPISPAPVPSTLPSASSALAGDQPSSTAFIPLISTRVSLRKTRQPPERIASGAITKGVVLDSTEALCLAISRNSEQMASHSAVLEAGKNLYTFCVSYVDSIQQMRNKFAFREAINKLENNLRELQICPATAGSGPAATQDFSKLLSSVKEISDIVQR

Cc1nn(C)c2c1-c1ccc3c(c1)/C(=C/c1[nH]ccc1C(=O)N(C)CCCO2)C(=O)N3 [Ex. 150, [3a(4)Z]-9,14,16-trimethyl-10,11,13,14-tetrahydro-2H-1,17-(ethanediylidene)pyrazolo[4,3-m]dipyrrolo[3,2-f:3′,4′-i][1,4]oxazacyclopentadecine-3,8(5H,9H)-dione]
% Ctrl, ABL1(F317L)-nonphosphorylated [1]: 87 % Ctrl | % Ctrl, ABL1(F317L)-phosphorylated [2]: 82 % Ctrl

Cc1cc2c([nH]1)/C=C1\C(=O)Nc3cc(Cl)c(cc31)OCCO[C@@H](C(=O)N1CCN(C)CC1)CN(C)C2=O [Ex. 138, [7R,16a(17)Z]-19-chloro-2,5-dimethyl-7-(4-methylpipearazine-1-carbonyl)-6,7,9,10-tetrahydro-1H-12,14-(ethanediylidene)dipyrrolo[3,2-i:3′,4′-l][1,4,7]dioxazacyclopentadecine-4,16(5H,15H)-dione]
% Ctrl, ABL1(F317L)-nonphosphorylated [1]: 69 % Ctrl | % Ctrl, ABL1(F317L)-phosphorylated [2]: 75 % Ctrl

Cc1cc2c([nH]1)/C=C1\C(=O)Nc3cc(Cl)c(cc31)OCCO[C@@H](C(=O)N(C)C)CN(C)C2=O [Ex. 137, [7R,16a(17)Z]-19-chloro-N,N,2,5-tetramethyl-4,16-dioxo-4,5,6,7,9,10,15,16-octahydro-1H-12,14-(ethanediylidene)dipyrrolo[3,2-i:3′,4′-l][1,4,7]dioxazacyclopentadecine-7-carboxamide]
% Ctrl, ABL1(F317L)-nonphosphorylated (ABL1(F317L)-nonphosphorylated): 76 % Ctrl | % Ctrl, ABL1(F317L)-phosphorylated (ABL1(F317L)-phosphorylated): 67 % Ctrl

Cc1cc2c([nH]1)/C=C1\C(=O)Nc3ccc(cc31)-c1ccnn1CCOCCN(C)C2=O [Ex. 41, [19a(20)Z]-2,5-dimethyl-6,7,9,10-tetrahydro-1H-15,17-(ethanediylidene)pyrazolo[1,5-d]dipyrrolo[3,4-h:2′,3′-k][1,4,14]oxadiazacyclohexadecine-4,19(5H,18H)-dione]
% Ctrl, ABL1(F317L)-nonphosphorylated (ABL1(F317L)-nonphosphorylated): 26 % Ctrl | % Ctrl, ABL1(F317L)-phosphorylated (ABL1(F317L)-phosphorylated): 53 % Ctrl

Cc1cc2c([nH]1)/C=C1\C(=O)Nc3ccc(cc31)-c1ccnn1CCOCCNC2=O [Ex.39, [19a(20)Z]-2-methyl-6,7,9,10-tetrahydro-1H-15,17-(ethanediylidene)pyrazolo[1,5-d]dipyrrolo[3,4-h:2′,3′-k][1,4,14]oxadiazacyclohexadecine-4,19(5H,18H)-dione]
% Ctrl, ABL1(F317L)-nonphosphorylated (ABL1(F317L)-nonphosphorylated): 98 % Ctrl | % Ctrl, ABL1(F317L)-phosphorylated (ABL1(F317L)-phosphorylated): 60 % Ctrl

Cc1cc2c([nH]1)/C=C1\C(=O)Nc3ccc(cc31)-c1cnn(C)c1CNCCN(C)C2=O [Ex. 125, [3a(4)Z]-6,9,14-trimethyl-9,10,11,12,13,14-hexahydro-1,17-(ethanediylidene)pyrazolo[4,3-m]dipyrrolo[3,2-f:3′,4′-i][1,4]diazacyclopentadecine-3,8(2H,5H)-dione]
% Ctrl, ABL1(F317L)-nonphosphorylated (ABL1(F317L)-nonphosphorylated): 0 % Ctrl | % Ctrl, ABL1(F317L)-phosphorylated (ABL1(F317L)-phosphorylated): 0.55 % Ctrl

Cc1cc2c([nH]1)/C=C1\C(=O)Nc3cnc(cc31)-c1cn[nH]c1CNCCN(C)C2=O [Ex. 55, [3a(4)Z]-6,9-dimethyl-9,10,11,12,13,14-hexahydro-17,1-(azenometheno)pyrazolo[4,3-m]dipyrrolo[3,2-f:3′,4′-i][1,4]diazacyclopentadecine-3,8(2,5H)-dione]
% Ctrl, ABL1(F317L)-nonphosphorylated [1]: 24 % Ctrl | % Ctrl, ABL1(F317L)-phosphorylated [2]: 10 % Ctrl

Cc1cc2c([nH]1)/C=C1\C(=O)Nc3ccc(cc31)-c1c(noc1C)CNCCN(C)C2=O [Ex. 139, [3a(4)Z]-6,9,16-trimethyl-10,11,12,13-tetrahydro-2H-1,17-(ethanediylidene)[1,2]oxazolo[4,3-m]dipyrrolo[3,2-f:3′,4′-i][1,4]diazacyclopentadecine-3,8(5H,9H)-dione]
% Ctrl, ABL1(F317L)-nonphosphorylated [1]: 48 % Ctrl | % Ctrl, ABL1(F317L)-phosphorylated [2]: 39 % Ctrl

Cc1cc2c([nH]1)/C=C1\C(=O)Nc3ccc(cc31)-c1ccnn1CCNCCNC2=O [Ex. 43, [19a(20)Z]-2-methyl-5,6,7,8,9,10-hexahydro-15,17-(ethanediylidene)pyrazolo[1,5-g]dipyrrolo[3,4-k:2′,3′-n][1,4,7]triazacyclohexadecine-4,19(1H,18H)-dione]
% Ctrl, ABL1(F317L)-nonphosphorylated (ABL1(F317L)-nonphosphorylated): 63 % Ctrl | % Ctrl, ABL1(F317L)-phosphorylated (ABL1(F317L)-phosphorylated): 90 % Ctrl

Cc1cc2c([nH]1)/C=C1\C(=O)Nc3ccc(cc31)-c1cnn(C)c1COCCN(C)C2=O [Ex. 124, [3a(4)Z]-6,9,14-trimethyl-10,11,13,14-tetrahydro-2H-1,17-(ethanediylidene)pyrazolo[4,3-m]dipyrrolo[3,2-f:3′,4′-i][1,4]oxazacyclopentadecine-3,8(5H,9H)-dione]
% Ctrl, ABL1(F317L)-nonphosphorylated (ABL1(F317L)-nonphosphorylated): 0 % Ctrl | % Ctrl, ABL1(F317L)-phosphorylated (ABL1(F317L)-phosphorylated): 0.2 % Ctrl

CN1CCOCCOc2cc3c(cc2Cl)NC(=O)/C3=C\c2[nH]ccc2C1=O [Ex. 143, [16a(17)Z]-19-chloro-2,5-dimethyl-6,7,9,10-tetrahydro-1H-12,14-(ethanediylidene)dipyrrolo[3,2-i:3′,4′-l][1,4,7]oxathiazacyclopentadecine-4,16(5H,15H)-dione]
% Ctrl, ABL1(F317L)-nonphosphorylated [1]: 17 % Ctrl | % Ctrl, ABL1(F317L)-phosphorylated [2]: 17 % Ctrl
